Results taken from patent US20050222127A1, “Use of Rho kinase inhibitors in the treatment of hearing loss, tinnitus and improving body balance” (Alcon, Inc., priority 2004, published 2005).

How the values were obtained:
Rho kinase (ROCK II) = target: T1, Rho kinase (ROCK II) (Homo sapiens, UniProt O75116); assay: IMAP fluorescence polarization Rho kinase assay (IMAP ROCK II kit); type: biochemical; details: mean ± SEM; 10 μM ATP, substrate 200 nM, 60 min at 23° C.; read-out: Rho Kinase Inhibition Constants (IC50), IMAP Fluorescence Polarization-Based Assay
T1 construct: purchased Molecular Devices, Sunnyvale, Calif
T1 sequence (O75116 whole entry, species assumed): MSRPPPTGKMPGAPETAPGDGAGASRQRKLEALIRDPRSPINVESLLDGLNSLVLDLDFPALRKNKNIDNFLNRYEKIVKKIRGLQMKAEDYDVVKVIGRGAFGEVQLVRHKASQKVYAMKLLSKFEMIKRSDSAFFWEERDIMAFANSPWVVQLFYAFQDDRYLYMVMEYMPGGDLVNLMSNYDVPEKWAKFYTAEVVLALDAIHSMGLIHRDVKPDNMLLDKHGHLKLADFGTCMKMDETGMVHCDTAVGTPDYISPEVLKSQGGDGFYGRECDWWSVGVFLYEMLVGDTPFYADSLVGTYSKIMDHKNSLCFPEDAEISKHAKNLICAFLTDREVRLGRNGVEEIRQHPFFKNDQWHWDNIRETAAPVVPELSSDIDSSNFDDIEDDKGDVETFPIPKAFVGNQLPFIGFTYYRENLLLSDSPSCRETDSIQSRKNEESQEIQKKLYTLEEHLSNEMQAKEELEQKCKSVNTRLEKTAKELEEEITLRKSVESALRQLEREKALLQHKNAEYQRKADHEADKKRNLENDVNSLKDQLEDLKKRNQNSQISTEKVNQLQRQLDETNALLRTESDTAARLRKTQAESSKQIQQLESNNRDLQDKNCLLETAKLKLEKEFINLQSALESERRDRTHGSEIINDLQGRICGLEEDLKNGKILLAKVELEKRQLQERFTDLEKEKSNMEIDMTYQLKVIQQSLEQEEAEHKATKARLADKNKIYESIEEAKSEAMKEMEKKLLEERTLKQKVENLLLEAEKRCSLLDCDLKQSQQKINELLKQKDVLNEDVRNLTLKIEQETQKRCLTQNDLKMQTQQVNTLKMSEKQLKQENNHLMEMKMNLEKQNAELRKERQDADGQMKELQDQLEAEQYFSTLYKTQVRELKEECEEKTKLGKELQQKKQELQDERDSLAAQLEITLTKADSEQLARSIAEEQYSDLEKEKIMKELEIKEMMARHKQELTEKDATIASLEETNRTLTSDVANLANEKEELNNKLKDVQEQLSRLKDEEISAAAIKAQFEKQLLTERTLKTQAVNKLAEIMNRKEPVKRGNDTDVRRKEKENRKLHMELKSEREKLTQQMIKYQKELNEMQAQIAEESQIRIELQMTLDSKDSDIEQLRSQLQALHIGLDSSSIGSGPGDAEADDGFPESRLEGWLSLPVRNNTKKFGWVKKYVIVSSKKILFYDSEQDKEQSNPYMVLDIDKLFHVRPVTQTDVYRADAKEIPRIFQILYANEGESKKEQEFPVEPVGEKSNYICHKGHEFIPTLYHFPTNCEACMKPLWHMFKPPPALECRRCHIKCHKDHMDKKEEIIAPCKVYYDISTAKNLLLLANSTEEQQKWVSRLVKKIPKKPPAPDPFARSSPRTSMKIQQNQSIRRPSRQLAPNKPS
Method: (§1) Rho kinase activity and inhibition of activity by test compounds in vitro is carried out using a radioactive assay or a fluorescence polarization assay as described herein.
The fluorescence polarization assays are performed using a Biomek 2000 Robotic Workstation (Beckman Instruments, Palo Alto, Calif.) in a 96-well plate format. The assay is performed utilizing the IMAP ROCK II kit (Molecular Devices, Sunnyvale, Calif.) as follows. […] The substrate, enzyme, and ATP dilutions are made with the reaction buffer provided by the vendor. Test compounds are diluted in 10:10 DMSO-ethanol (vol/vol). For the actual assay, the various components are added into black, clear bottom, 96-well plates (Costar, Corning, N.Y.) in a final volume of 20 μl per well. After the enzyme reaction (60 min at 23° C.), 60 μl of the binding solution (IMAP kit provided by vendor) is added per well and incubated for an additional 30 minutes in the dark at 23° C. Fluorescence polarization of the reaction mixtures is then measured on the Analyst™ HT instrument (Molecular Devices, Sunnyvale, Calif.). The data are then analyzed using a non-linear, iterative, sigmoidal-fit computer program purchased from IDBS (Emeryville, Calif.) and as previously described (Sharif et al., ibid.) to generate the inhibition constants for the test compounds.

[1] = target: T2, Human recombinant Rho kinase (ROKα/ROCK-II, aa 11-552) (Homo sapiens, UniProt O75116); assay: [γ-33P]-ATP-based Rho kinase assay; type: biochemical; details: mean ± SEM; 100 μM ATP, Long S6 substrate peptide 30 μM, 30 min at 30° C.; read-out: Rho Kinase Inhibition Constants (IC50), [γ-33P]-ATP-Based Assay
T2 construct: ROKα/ROCK-II, (aa 11-552), human active, catalog #14-451; purchased Upstate Biotechnology Co., Lake Placid, N.Y. 14-451
T2 sequence (O75116 11-552): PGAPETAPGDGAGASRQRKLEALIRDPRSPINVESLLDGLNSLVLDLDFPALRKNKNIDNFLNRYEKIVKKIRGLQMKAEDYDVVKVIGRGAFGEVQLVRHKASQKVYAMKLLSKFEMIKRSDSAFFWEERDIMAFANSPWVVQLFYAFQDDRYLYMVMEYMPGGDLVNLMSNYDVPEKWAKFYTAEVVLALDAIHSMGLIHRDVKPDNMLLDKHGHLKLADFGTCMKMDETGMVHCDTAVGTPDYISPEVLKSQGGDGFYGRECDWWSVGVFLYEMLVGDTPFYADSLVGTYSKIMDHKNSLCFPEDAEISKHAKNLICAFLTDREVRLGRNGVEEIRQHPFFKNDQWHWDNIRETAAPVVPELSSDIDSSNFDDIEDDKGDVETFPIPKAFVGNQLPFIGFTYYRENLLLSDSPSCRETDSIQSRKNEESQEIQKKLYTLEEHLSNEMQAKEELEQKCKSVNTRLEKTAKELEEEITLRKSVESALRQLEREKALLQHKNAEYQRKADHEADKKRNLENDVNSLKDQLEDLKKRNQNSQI
Method: as §1
The enzyme assays are performed using a Biomek 2000 Robotic Workstation (Beckman Instruments, Palo Alto, Calif.) in a 96-well format using [γ-^33P]-ATP (Perkin-Elmer Life Sciences, Boston, Mass.). Stock [γ-^33P] ATP (3000 Ci/mmol) is diluted to 1 μCi/μl with the MgCl2/ATP cocktail solution. The concentrations of MgCl2/ATP used are 15 mM and 100 μM, respectively. […] The substrate and enzyme are diluted in 20 mM MOPS buffer (pH 7.2), 25 mM β-glycerol phosphate, 5 mM EGTA, 1.0 mM sodium orthovanadate, and 1.0 mM DTT. Test compound dilutions are made in 10:10 dimethyl sulfoxide-ethanol (vol/vol). In the following order, substrate, enzyme, test compound dilution, and [γ-33P]-ATP are added to the 96-well plates for a final volume of 100 μl per well. […] The radioactivity captured on the filter mats is then determined on a beta-counter.

Compound | IC50 (Rho kinase (ROCK II)) | IC50 [1]
CC1CNCCN1S(=O)(=O)c1cccc2cnccc12 (centres unmarked) [B, reference compound] | 913 ± 644 nM | 2340 ± 395 nM
Cc1cncc2cccc(S(=O)(=O)N3CCCN(C)C(C)C3)c12 (centres unmarked) [D] | 270 ± 113 nM | 3460 ± 1800 nM
Cc1cncc2cccc(S(=O)(=O)N3CCCN(C)CC3C)c12 (centres unmarked) [E] | 108 ± 53 nM | 485 ± 207 nM
Cc1cncc2cccc(S(=O)(=O)N3CCCNC(C)(C)C3)c12 [F] | 2010 ± 85 nM | 1510 ± 704 nM
Cc1cncc2cccc(S(=O)(=O)N3CCNC(C)C3)c12 (centres unmarked) [G] | 2390 ± 1260 nM | 2630 ± 307 nM
CC1CN(S(=O)(=O)c2cccc3cnccc23)CCN1 (centres unmarked) [I, reference compound] |  | 6700 ± 900 nM
